The supplement of paper PMC10307832

Experiments:
Assay in all cases: relative viability (nuclei count vs DMSO), 5 days (fraction); higher = more cells survive
NCI-H2087 = system: NCI-H2087
Outline: (§1)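 Lung cancer cell lines were pin-tool dosed in 1536-well plates on the day after seeding, with either a lone drug or a fixed anchor-drug dose plus five library-drug doses (not always all listed) in √10 steps. Nuclei were counted on 4× images after 5 days. Relative viability is the ratio of treated-well to vehicle-well nuclei counts, with each value a median of duplicate plates.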

NCI-H727 = system: NCI-H727
Outline: as §1

SK-LU-1 = system: SK-LU-1
Outline: as §1

LXF-289 = system: LXF-289
Outline: as §1

NCI-H3122 = system: NCI-H3122
Outline: as §1

RERF-LC-KJ = system: RERF-LC-KJ
Outline: as §1

LCLC-97TM1 = system: LCLC-97TM1
Outline: as §1

NCI-H647 = system: NCI-H647
Outline: as §1

NCI-H322M = system: NCI-H322M
Outline: as §1

HCC-827 = system: HCC-827
Outline: as §1

NCI-H1437 = system: NCI-H1437
Outline: as §1

NCI-H2228 = system: NCI-H2228
Outline: as §1

201T = system: 201T
Outline: as §1

NCI-H1395 = system: NCI-H1395
Outline: as §1

NCI-H1793 = system: NCI-H1793
Outline: as §1

NCI-H1792 = system: NCI-H1792
Outline: as §1

NCI-H1944 = system: NCI-H1944
Outline: as §1

LCLC-103H = system: LCLC-103H
Outline: as §1

BEN = system: BEN
Outline: as §1

CAL-12T = system: CAL-12T
Outline: as §1

NCI-H2405 = system: NCI-H2405
Outline: as §1

COc1cc2nccc(Oc3ccc(NC(=O)Nc4cc(C)on4)c(Cl)c3)c2cc1OC [Tivozanib] + Cc1nc(NC(=O)N2CCC[C@H]2C(N)=O)sc1-c1ccnc(C(C)(C)C(F)(F)F)c1 [Alpelisib] (partner 2 µM)
relative viability (NCI-H2087; first compound 0.005 µM): 1.04 | relative viability (NCI-H2087; first compound 0.01581 µM): 1.03 | relative viability (NCI-H2087; first compound 0.05 µM): 1.18 | relative viability (NCI-H2087; first compound 0.1581 µM): 0.886 | relative viability (NCI-H2087; first compound 0.5 µM): 1.04 | relative viability (NCI-H727; first compound 0.005 µM): 0.505 | relative viability (NCI-H727; first compound 0.01581 µM): 0.501 | relative viability (NCI-H727; first compound 0.05 µM): 0.675 | relative viability (NCI-H727; first compound 0.5 µM): 0.615 | relative viability (SK-LU-1; first compound 0.005 µM): 1.01 | relative viability (SK-LU-1; first compound 0.01581 µM): 1.01 | relative viability (SK-LU-1; first compound 0.05 µM): 1.12 | relative viability (SK-LU-1; first compound 0.1581 µM): 0.645 | relative viability (SK-LU-1; first compound 0.5 µM): 0.907 | relative viability (LXF-289; first compound 0.005 µM): 1.02 | relative viability (LXF-289; first compound 0.01581 µM): 0.966 | relative viability (LXF-289; first compound 0.05 µM): 1.06 | relative viability (LXF-289; first compound 0.1581 µM): 1.09 | relative viability (LXF-289; first compound 0.5 µM): 1.02 | relative viability (NCI-H3122; first compound 0.005 µM): 0.668 | relative viability (NCI-H3122; first compound 0.01581 µM): 0.792 | relative viability (NCI-H3122; first compound 0.05 µM): 0.798 | relative viability (NCI-H3122; first compound 0.1581 µM): 0.973 | relative viability (NCI-H3122; first compound 0.5 µM): 0.983 | relative viability (RERF-LC-KJ; first compound 0.005 µM): 0.729 | relative viability (RERF-LC-KJ; first compound 0.01581 µM): 0.757 | relative viability (RERF-LC-KJ; first compound 0.05 µM): 0.965 | relative viability (RERF-LC-KJ; first compound 0.1581 µM): 0.689 | relative viability (RERF-LC-KJ; first compound 0.5 µM): 0.834 | relative viability (LCLC-97TM1; first compound 0.005 µM): 0.191 | relative viability (LCLC-97TM1; first compound 0.01581 µM): 0.206 | relative viability (LCLC-97TM1; first compound 0.1581 µM): 0.237 | relative viability (LCLC-97TM1; first compound 0.5 µM): 0.247 | relative viability (NCI-H647; first compound 0.005 µM): 1.22 | relative viability (NCI-H647; first compound 0.01581 µM): 1.17 | relative viability (NCI-H647; first compound 0.05 µM): 1.1 | relative viability (NCI-H647; first compound 0.1581 µM): 0.803 | relative viability (NCI-H647; first compound 0.5 µM): 0.958 | relative viability (NCI-H322M; first compound 0.005 µM): 0.743 | relative viability (NCI-H322M; first compound 0.01581 µM): 0.764 | relative viability (NCI-H322M; first compound 0.05 µM): 0.767 | relative viability (NCI-H322M; first compound 0.1581 µM): 0.756 | relative viability (NCI-H322M; first compound 0.5 µM): 0.84 | relative viability (HCC-827; first compound 0.005 µM): 0.902 | relative viability (HCC-827; first compound 0.01581 µM): 0.992 | relative viability (HCC-827; first compound 0.05 µM): 1.04 | relative viability (HCC-827; first compound 0.1581 µM): 0.98 | relative viability (HCC-827; first compound 0.5 µM): 1.02 | relative viability (NCI-H1437; first compound 0.005 µM): 1.02 | relative viability (NCI-H1437; first compound 0.01581 µM): 1 | relative viability (NCI-H1437; first compound 0.05 µM): 1 | relative viability (NCI-H1437; first compound 0.1581 µM): 0.943 | relative viability (NCI-H1437; first compound 0.5 µM): 0.959 | relative viability (NCI-H2228; first compound 0.005 µM): 0.653 | relative viability (NCI-H2228; first compound 0.01581 µM): 0.81 | relative viability (NCI-H2228; first compound 0.05 µM): 0.944 | relative viability (NCI-H2228; first compound 0.1581 µM): 0.743 | relative viability (NCI-H2228; first compound 0.5 µM): 0.72 | relative viability (201T; first compound 0.005 µM): 0.993 | relative viability (201T; first compound 0.01581 µM): 1 | relative viability (201T; first compound 0.05 µM): 1.05 | relative viability (201T; first compound 0.1581 µM): 1.02 | relative viability (201T; first compound 0.5 µM): 1.08 | relative viability (NCI-H1395; first compound 0.005 µM): 0.951 | relative viability (NCI-H1395; first compound 0.01581 µM): 1.08 | relative viability (NCI-H1395; first compound 0.05 µM): 1.01 | relative viability (NCI-H1395; first compound 0.1581 µM): 1.05 | relative viability (NCI-H1395; first compound 0.5 µM): 0.91 | relative viability (NCI-H1793; first compound 0.005 µM): 0.643 | relative viability (NCI-H1793; first compound 0.01581 µM): 0.617 | relative viability (NCI-H1793; first compound 0.05 µM): 0.729 | relative viability (NCI-H1793; first compound 0.5 µM): 0.705 | relative viability (NCI-H1792; first compound 0.005 µM): 0.728 | relative viability (NCI-H1792; first compound 0.01581 µM): 0.778 | relative viability (NCI-H1792; first compound 0.05 µM): 0.786 | relative viability (NCI-H1792; first compound 0.1581 µM): 0.847 | relative viability (NCI-H1792; first compound 0.5 µM): 0.812 | relative viability (NCI-H1944; first compound 0.005 µM): 0.889 | relative viability (NCI-H1944; first compound 0.01581 µM): 0.902 | relative viability (NCI-H1944; first compound 0.05 µM): 0.885 | relative viability (NCI-H1944; first compound 0.1581 µM): 0.733 | relative viability (NCI-H1944; first compound 0.5 µM): 0.912 | relative viability (LCLC-103H; first compound 0.005 µM): 0.951 | relative viability (LCLC-103H; first compound 0.01581 µM): 0.938 | relative viability (LCLC-103H; first compound 0.05 µM): 1.04 | relative viability (LCLC-103H; first compound 0.1581 µM): 0.997 | relative viability (LCLC-103H; first compound 0.5 µM): 1.01 | relative viability (BEN; first compound 0.005 µM): 0.991 | relative viability (BEN; first compound 0.01581 µM): 1.04 | relative viability (BEN; first compound 0.05 µM): 1.03 | relative viability (BEN; first compound 0.5 µM): 1.05 | relative viability (CAL-12T; first compound 0.005 µM): 1.11 | relative viability (CAL-12T; first compound 0.01581 µM): 1.07 | relative viability (CAL-12T; first compound 0.05 µM): 1.31 | relative viability (CAL-12T; first compound 0.5 µM): 1.32 | relative viability (NCI-H2405; first compound 0.005 µM): 0.776 | relative viability (NCI-H2405; first compound 0.01581 µM): 0.878 | relative viability (NCI-H2405; first compound 0.05 µM): 0.823 | relative viability (NCI-H2405; first compound 0.1581 µM): 0.737 | relative viability (NCI-H2405; first compound 0.5 µM): 0.641
